Results reported in article PMC8280721, “Structural and Functional Analysis of a Multimodular Hyperthermostable Xylanase-Glucuronoyl Esterase from Caldicellulosiruptor kristjansonii” (Biochemistry, 2021).

How the values were obtained:
Type in all cases: binding
[1] = target: T1, CkGE15A (GE15A, glucuronoyl esterase domain of CkXyn10C-GE15A) (Caldicellulosiruptor acetigenus, UniProt E4S6E9); experiment: DSF (Tycho NT.[…]); conditions: 10000 µM; 0.5 mg/mL protein, 50 mM MOPS pH 7.2; second inflection point; no-ligand control Ti2 81.3 ± 0.37 °C
T1 construct: gene Calkr_2245; isolated CE15 domain (entire GE domain Thr1341-Arg1685 seen in structure); E. coli BL21(DE3), pET28a-TEVc; full-length protein 2159 residues

[2] = target: T2, CBM9.3 (CkCBM9.3, third CBM9 domain of CkXyn10C-GE15A) (Caldicellulosiruptor acetigenus, UniProt E4S6E9); experiment: DSF (Tycho NT.[…]); conditions: 100000 µM; 0.5 mg/mL protein, 50 mM Tris pH 8, 100 mM NaCl; 100 mM ligand; no-ligand control Ti 61.0 ± 0.88 °C
T2 construct: gene Calkr_2245; isolated CBM9.3 domain (Lys1072-Leu1252) plus C-terminal linker Lys1253-Pro1265; N-terminal His6 tag and TEV site (not seen in density); E. coli BL21(DE3), pET28a-TEVc; full-length protein 2159 residues

[3] = target: T2, CBM9.3 (CkCBM9.3, third CBM9 domain of CkXyn10C-GE15A); experiment: X-ray crystallography (soak […], […] min); conditions: crystal at pH 4.2; aromatic clamp Tyr89/Trp191

T1 sequence (E4S6E9 entry or part of it): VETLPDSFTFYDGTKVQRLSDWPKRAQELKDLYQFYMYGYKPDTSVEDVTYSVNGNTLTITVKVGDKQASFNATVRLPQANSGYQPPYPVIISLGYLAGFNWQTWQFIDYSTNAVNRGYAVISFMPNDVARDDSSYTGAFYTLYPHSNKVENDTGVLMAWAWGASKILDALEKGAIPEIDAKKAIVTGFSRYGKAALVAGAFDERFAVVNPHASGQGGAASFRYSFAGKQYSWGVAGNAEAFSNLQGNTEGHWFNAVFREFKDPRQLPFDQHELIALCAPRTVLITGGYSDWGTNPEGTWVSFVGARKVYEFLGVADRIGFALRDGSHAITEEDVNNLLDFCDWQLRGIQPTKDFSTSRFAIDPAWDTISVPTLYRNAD
T2 sequence (E4S6E9 entry or part of it): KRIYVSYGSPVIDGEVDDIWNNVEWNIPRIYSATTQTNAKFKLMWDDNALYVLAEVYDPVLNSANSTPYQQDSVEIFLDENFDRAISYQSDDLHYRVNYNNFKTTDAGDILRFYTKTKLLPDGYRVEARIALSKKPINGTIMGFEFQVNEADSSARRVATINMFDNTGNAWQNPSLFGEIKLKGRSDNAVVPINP

Row | Compound | Ti2 (°C) ± SD [1] [°C] | Ti (°C) ± SD [2] [°C] | X-ray crystallography (soak 500 mM, 5 min) [3]
1 | O=C(OCc1ccccc1)[C@H]1OC(O)[C@H](O)[C@@H](O)[C@@H]1O (stereo partly shown) [benzylglucuronate] | 79.3 ± 0.49 | – | –
2 | OC[C@H]1OC(O)[C@H](O)[C@@H](O)[C@@H]1O (stereo partly shown) [glucose] | – | 66.7 ± 0.195 | we obtained structures with bound glucose and cellobiose and also with cellotriose
3 | aldopentauronic acid | 79.2 ± 0.49 | – | –
